Test results from ChEMBL document CHEMBL1201862, “PubChem BioAssay data set” (2004).
Calls of active or inactive are those of the source.

Assays:
[1] = target: T1, Kappa-type opioid receptor (Homo sapiens, UniProt P41145); assay: SAR analysis of Antagonists of the Kappa Opioid Receptor (KOR) using an Image-Based Assay - Set 4. [Related pubchem assays (depositor defined):AID1777, AID1785]; type: functional
[2] = target: T1, Kappa-type opioid receptor; assay: SAR analysis of small molecule antagonists of the kappa opioid receptor via a luminescent beta-arrestin assay - Set 4. [Related pubchem assays (depositor defined):AID1777, AID1778, AID1785, AID1786, AID1966, AID2133, AID2136, AID2285]; type: functional
[3] = target: Mu-type opioid receptor (Homo sapiens, UniProt P35372); assay: SAR Analysis of Antagonists of the MOR Receptor using an Image-Based Assay - Set 3. [Related pubchem assays (depositor defined):AID1777, AID1785, AID1786, AID1966, AID2133, AID2136, AID2284, AID2285, AID2420]; type: functional
Sequence of Mu-type opioid receptor (P35372 whole entry): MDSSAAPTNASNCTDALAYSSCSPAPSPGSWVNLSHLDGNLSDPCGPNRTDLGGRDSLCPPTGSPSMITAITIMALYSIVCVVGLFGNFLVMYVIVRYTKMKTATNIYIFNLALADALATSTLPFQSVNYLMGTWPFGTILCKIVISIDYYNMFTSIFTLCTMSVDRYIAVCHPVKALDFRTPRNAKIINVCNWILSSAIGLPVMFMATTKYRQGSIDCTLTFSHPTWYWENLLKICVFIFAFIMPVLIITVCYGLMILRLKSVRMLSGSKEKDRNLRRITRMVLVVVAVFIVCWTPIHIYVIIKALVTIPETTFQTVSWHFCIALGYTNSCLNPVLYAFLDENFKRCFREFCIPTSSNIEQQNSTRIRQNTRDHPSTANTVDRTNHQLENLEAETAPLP

[4] = target: Delta-type opioid receptor (Homo sapiens, UniProt P41143); assay: SAR Analysis of Antagonists of the DOR Receptor using an Image-Based Assay - Set 3. [Related pubchem assays (depositor defined):AID1777, AID1785]; type: functional;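 also: U2OS cells expressing DOR1 and beta-arrestin GFP stimulated with 100 nM SNC80; imaging of GFP-tagged beta-arrestin moving into spots after receptor activation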
Sequence of Delta-type opioid receptor (P41143 whole entry): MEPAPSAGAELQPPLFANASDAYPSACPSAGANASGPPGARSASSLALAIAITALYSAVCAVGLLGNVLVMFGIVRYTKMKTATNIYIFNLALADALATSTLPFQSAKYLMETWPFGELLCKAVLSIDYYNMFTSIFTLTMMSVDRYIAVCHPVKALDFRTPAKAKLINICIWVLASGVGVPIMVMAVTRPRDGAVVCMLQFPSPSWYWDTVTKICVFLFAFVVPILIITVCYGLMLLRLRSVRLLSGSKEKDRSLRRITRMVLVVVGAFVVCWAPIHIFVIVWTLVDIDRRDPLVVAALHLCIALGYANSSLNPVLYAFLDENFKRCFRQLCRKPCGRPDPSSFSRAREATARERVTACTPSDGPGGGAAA

[5] = target: T2, Dual specificity protein phosphatase 6 (Rattus norvegicus, UniProt Q64346)
T2 sequence (Q64346 whole entry): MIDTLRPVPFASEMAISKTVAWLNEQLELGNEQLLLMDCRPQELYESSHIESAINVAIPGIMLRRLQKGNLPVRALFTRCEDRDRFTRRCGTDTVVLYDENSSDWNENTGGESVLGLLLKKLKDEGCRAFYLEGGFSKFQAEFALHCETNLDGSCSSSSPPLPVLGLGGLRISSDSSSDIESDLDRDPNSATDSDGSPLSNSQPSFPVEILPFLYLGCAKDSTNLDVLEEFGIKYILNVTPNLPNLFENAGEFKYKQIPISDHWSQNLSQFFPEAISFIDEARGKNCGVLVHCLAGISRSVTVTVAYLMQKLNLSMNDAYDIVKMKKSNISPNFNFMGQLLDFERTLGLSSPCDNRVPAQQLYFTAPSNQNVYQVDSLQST

[6] = target: T2, Dual specificity protein phosphatase 6; type: functional
[7] = target: T3, Dual specificity protein phosphatase 3 (Homo sapiens, UniProt P51452); assay: MOA VHR1 Fluorescent secondary assay for identification of redox-state modulating compounds. [Related pubchem assays (depositor defined):AID1654, AID1661, AID1878, AID1957]
T3 sequence (P51452 whole entry): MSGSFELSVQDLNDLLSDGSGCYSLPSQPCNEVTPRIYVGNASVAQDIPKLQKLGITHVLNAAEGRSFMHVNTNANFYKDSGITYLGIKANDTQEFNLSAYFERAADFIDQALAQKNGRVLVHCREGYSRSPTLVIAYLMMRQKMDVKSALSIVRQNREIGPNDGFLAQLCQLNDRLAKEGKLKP

[8] = target: T3, Dual specificity protein phosphatase 3; assay: SAR VHR1 Fluorescent Assay for In Vitro dose response studies. [Related pubchem assays (depositor defined):AID1654, AID1661, AID1878, AID1992, AID2004, AID2070, AID2085]; type: functional
[9] = target: Glyceraldehyde-3-phosphate dehydrogenase (Homo sapiens, UniProt P04406)
Sequence of Glyceraldehyde-3-phosphate dehydrogenase (P04406 whole entry): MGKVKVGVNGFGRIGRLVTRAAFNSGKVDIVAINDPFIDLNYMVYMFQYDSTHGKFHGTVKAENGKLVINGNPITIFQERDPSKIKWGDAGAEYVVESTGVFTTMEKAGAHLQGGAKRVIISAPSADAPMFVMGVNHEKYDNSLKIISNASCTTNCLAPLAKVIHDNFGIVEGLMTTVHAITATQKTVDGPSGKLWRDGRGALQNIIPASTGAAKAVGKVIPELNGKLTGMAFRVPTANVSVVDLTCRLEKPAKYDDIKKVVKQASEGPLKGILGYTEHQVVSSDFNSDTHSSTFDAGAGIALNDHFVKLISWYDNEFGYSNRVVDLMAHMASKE

[10] = target: T4, Tyrosine-protein phosphatase non-receptor type 7 (Homo sapiens, UniProt P35236); assay: redox-active compounds inhibiting HePTP phosphatase – biochemical, fluorescence, mechanism study (AID 2068); type: functional
T4 sequence (P35236 whole entry): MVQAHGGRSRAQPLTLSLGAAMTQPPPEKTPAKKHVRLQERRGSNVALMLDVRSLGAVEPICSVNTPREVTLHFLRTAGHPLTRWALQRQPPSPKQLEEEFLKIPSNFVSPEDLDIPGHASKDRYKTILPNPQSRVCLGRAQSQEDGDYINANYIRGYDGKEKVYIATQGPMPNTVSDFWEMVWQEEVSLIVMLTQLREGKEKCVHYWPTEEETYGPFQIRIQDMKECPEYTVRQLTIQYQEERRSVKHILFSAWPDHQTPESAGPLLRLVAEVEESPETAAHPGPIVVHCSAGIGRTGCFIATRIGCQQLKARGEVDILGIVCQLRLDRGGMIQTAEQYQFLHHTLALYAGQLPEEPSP

[11] = target: T4, Tyrosine-protein phosphatase non-receptor type 7; type: functional
[12] = alpha-synuclein stem-loop translation blockers – luminescence, H4 neuroglioblastoma cells, dose confirmation, confirmation (AID 2454); type: functional, cell-based;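 also: H4 neuroglioblastoma cells carrying an alpha-synuclein 5'UTR luciferase reporter; potency for inhibition of the luciferase signal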
[13] = test system: A-375; assay: proliferation inhibition in MITF-low A375 cells – cell-based, cherry-pick samples, set 2, counter-screen for MITF modulator project, dose response (AID 540335); type: functional; conditions: Homo sapiens
[14] = test system: BJ; assay: cells; type: functional, cell-based; conditions: Homo sapiens
[15] = test system: HEK293; assay: PMA/Ionomycin induced NF-kB luciferase assay in 293- NF-kB-Luc stable cells. [Related pubchem assays: 1299, 1270, 1295, 1375, 1287, 1281, 1293, 1291, 1289, 1280, 465, 1364, 1282, 1372, 1365, 1370, 1367, 1366, 1269, 1373, 1292, 1290, 1302, 1371, 1283, 1271, 1294, 1374, 1368, 1369 ]; type: functional, cell-based; conditions: Homo sapiens
[16] = luciferase reporter signal suppression in cells – H4 neuroglioma cells, luminescence, dose response (AID 1990); type: functional, cell-based
[17] = HEK-293T viability loss after treatment – luminescence, T-cell screen hits, cytotoxicity control for TCR NF-kB inhibitor project, dose response (AID 489026); type: functional, cell-based;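 also: cells exposed to compound about 14 hours before the viability readout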
[18] = alpha-synuclein stem-loop luciferase translation blockers – H4 neuroglioma cells, luminescence, confirmation (AID 1988); type: functional, cell-based
[19] = target: T5, Microphthalmia-associated transcription factor (Homo sapiens, UniProt O75030); assay: reducers of TRPM1 reporter luminescence, concentration series – cell-based, SK-MEL-5, cherry-picked, set 3, MITF inhibitor project, dose response (AID 493073); type: functional;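 also: SK-MEL-5 melanoma cells with luciferase driven by the MITF target TRPM1 promoter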
T5 sequence (O75030 whole entry): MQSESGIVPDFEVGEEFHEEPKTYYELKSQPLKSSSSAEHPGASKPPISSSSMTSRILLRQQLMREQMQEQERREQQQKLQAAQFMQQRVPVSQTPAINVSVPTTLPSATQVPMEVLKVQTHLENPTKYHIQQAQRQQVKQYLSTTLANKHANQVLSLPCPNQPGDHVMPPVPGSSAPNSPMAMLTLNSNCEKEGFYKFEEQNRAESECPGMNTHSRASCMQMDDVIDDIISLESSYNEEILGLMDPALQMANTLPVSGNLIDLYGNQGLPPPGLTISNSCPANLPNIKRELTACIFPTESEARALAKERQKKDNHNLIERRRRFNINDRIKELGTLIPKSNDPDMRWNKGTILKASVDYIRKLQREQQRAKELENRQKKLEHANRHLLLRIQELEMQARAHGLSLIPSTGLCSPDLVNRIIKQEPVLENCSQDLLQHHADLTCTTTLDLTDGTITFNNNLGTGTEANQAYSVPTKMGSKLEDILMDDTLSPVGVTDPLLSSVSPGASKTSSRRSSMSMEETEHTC

[20] = target: Luciferin 4-monooxygenase (Photinus pyralis, UniProt P08659); assay: In vitro luciferase assay using purified luciferase. [Related pubchem assays: 1299, 1270, 1295, 1375, 1287, 1281, 1293, 1291, 1289, 1280, 465, 1364, 1282, 1372, 1365, 1370, 1367, 1366, 1266, 1373, 1292, 1290, 1302, 1371, 1283, 1271, 1294, 1374, 1368, 1369 ]
Sequence of Luciferin 4-monooxygenase (P08659 whole entry): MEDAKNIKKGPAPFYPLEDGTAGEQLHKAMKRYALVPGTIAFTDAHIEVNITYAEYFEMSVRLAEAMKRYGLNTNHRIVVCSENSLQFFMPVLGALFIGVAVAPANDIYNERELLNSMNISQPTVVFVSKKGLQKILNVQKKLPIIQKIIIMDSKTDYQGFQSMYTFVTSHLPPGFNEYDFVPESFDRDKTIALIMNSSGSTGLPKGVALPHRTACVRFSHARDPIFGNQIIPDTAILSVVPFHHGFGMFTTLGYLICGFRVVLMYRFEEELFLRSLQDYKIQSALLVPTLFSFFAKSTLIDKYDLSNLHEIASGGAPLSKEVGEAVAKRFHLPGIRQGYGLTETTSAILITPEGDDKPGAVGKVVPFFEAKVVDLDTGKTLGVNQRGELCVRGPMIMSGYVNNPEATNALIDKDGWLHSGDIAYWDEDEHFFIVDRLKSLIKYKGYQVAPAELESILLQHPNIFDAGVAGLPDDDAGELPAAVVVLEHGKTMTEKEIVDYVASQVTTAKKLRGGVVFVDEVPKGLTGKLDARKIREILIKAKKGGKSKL

[21] = test system: HEK293; assay: TNF Induced NF-kB Luciferase in 293-NF-kB-Luc Stable Cells. [Related pubchem assays: 1266, 1299, 1269, 1373, 1292, 1290, 1302, 1371, 1283, 1270, 1295, 1271, 1375, 1294, 1374, 1281, 1293, 1291, 1289, 1280, 465, 1368, 1364, 1282, 1372, 1365, 1369, 1370, 1367, 1366 ]; type: functional, cell-based; conditions: Homo sapiens
[22] = test system: HEK293; assay: PMA/Ionomycin-induced IL-8 production in HEK293- NF-kB-Luc stable cells. [Related pubchem assays: 1299, 1295, 1375, 1287, 1281, 1293, 1291, 1289, 1280, 465, 1364, 1282, 1372, 1365, 1367, 1366, 1266, 1269, 1373, 1292, 1290, 1302, 1371, 1283, 1271, 1294, 1374, 1368, 1369 ]; type: functional, cell-based; conditions: Homo sapiens
[23] = luciferase reporter signal reduction – luminescence, H4-C neuroglioblastoma cells, dose response (AID 2458); type: functional, cell-based;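 also: H4 neuroglioblastoma cells stably carrying a luciferase reporter gene fusion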
[24] = cells; type: functional, cell-based
[25] = test system: HEK293; assay: Cytotoxicity assay in HEK293 cells. [Related pubchem assays (depositor defined):AID1266, AID1269, AID1270, AID1271, AID1280, AID1281, AID1282, AID1283, AID1287, AID1289, AID1290, AID1291, AID1292, AID1293, AID1294, AID1295, AID1299, AID1302, AID1364, AID1365, AID1366, AID1367, AID1369, AID1370, AID1371, AID1372, AID1373, AID1374, AID1375, AID1384 …; type: functional, cell-based; conditions: Homo sapiens
[26] = test system: A-375; assay: MITF: Counter assay: A375 proliferation Measured in Cell-Based System Using Plate Reader - 2084-03_Inhibitor_Dose_DryPowder_Activity. [Related pubchem assays (depositor defined):AID488944]; type: functional; conditions: Homo sapiens
[27] = target: T6, Hexokinase HKDC1 (Homo sapiens, UniProt Q2TB90); assay: inhibition of HKDC1 glucose phosphorylation – biochemical, W721R variant, dose response (AID 504729); type: functional
T6 sequence (Q2TB90 whole entry): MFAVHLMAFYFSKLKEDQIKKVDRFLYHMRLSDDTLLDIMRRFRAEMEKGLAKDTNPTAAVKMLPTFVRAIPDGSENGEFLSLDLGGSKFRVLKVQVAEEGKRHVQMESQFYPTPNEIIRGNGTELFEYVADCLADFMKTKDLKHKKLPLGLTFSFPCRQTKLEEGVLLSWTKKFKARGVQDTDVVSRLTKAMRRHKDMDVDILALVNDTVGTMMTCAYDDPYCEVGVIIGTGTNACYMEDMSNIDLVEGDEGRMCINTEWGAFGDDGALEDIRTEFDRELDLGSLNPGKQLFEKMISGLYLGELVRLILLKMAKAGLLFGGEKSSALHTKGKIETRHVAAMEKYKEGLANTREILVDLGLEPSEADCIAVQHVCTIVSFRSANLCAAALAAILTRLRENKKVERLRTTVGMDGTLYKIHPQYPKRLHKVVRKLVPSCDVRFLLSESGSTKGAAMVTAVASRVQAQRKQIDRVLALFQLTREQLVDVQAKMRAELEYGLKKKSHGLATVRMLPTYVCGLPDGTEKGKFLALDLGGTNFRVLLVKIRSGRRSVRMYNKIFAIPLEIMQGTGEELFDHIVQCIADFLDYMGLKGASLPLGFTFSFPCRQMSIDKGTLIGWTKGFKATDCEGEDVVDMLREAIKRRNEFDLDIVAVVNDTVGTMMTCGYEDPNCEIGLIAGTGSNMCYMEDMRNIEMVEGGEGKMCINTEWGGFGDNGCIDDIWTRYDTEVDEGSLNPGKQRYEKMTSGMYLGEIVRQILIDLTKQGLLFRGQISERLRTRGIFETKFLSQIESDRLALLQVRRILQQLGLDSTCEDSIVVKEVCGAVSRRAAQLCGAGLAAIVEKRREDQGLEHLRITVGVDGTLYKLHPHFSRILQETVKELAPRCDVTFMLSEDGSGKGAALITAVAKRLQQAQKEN

[28] = target: T7, Adenosylmethionine-8-amino-7-oxononanoate aminotransferase (Mycobacterium tuberculosis, UniProt P9WQ81); assay: Mycobacterium tuberculosis BioA enzyme inhibitor Measured in Biochemical System Using Plate Reader - 2163-02_Inhibitor_Dose_CherryPick_Activity.; type: functional, Mycobacterium tuberculosis UT205
T7 sequence (P9WQ81 whole entry): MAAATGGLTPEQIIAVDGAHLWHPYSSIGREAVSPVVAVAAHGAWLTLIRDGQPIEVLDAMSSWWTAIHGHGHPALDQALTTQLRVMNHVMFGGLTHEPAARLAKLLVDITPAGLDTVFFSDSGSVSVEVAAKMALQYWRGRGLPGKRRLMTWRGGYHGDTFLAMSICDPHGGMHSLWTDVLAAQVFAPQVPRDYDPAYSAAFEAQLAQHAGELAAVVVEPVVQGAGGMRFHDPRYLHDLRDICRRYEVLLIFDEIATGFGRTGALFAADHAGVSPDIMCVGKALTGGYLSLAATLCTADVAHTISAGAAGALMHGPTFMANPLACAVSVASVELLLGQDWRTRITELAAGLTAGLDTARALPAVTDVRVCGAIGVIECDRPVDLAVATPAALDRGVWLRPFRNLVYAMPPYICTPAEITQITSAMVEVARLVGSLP

T1 sequence (P41145 whole entry): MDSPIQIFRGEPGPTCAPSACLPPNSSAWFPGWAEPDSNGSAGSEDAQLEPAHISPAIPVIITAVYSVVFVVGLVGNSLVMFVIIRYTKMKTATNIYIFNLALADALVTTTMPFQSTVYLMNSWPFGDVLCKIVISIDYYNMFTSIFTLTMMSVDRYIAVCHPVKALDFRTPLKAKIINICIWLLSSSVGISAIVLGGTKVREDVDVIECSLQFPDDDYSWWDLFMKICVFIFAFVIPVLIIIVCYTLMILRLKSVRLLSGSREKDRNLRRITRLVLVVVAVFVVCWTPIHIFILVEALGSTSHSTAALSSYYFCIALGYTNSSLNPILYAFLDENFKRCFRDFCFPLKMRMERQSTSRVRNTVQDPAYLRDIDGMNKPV

CC(C)c1ccc(S(=O)(=O)NCc2ccc(C(=O)NCCN(Cc3ccccc3)C(C)C)cc2)cc1
active: IC50 [1] 0.531 µM | IC50 [2] 1.57 µM | IC50 [3] 0.66 µM
inactive: IC50 [4] > 32 µM

O=c1/c(=C/c2ccco2)sc2nc3cc(Br)cnc3n12
active: IC50 [5] 4.4 µM | IC50 [6] 6.58 µM | IC50 [7] 0.345 µM | IC50 [8] 1.23 µM | IC50 [9] 27.8 µM | IC50 [10] 0.127 µM | IC50 [11] 0.543 µM

COc1cc(C2C(C#N)=C(N)Oc3cc(N(C)C)ccc32)cc2c1OCO2 (stereo not drawn)
inconclusive: EC50 [14] 121 µM
inactive: IC50 [17] > 80 µM | EC50 [25] > 8 µM
> 8 µM (not active): EC50 [20] | EC50 [21] | EC50 [22]
active: EC50 [12] 0.106 µM | AC50 [13] > 35 µM | EC50 [15] 2.18 µM | EC50 [16] < 0.1 µM | EC50 [18] < 0.1 µM | AC50 [19] 0.601 µM | EC50 [23] 0.096 µM | EC50 [24] 0.116 µM | AC50 [26] > 35 µM

O=C(CSc1nnc(-c2cccnc2)[nH]1)Nc1ccnc2ccccc12
active: IC50 [27] 13.1 µM | AC50 [28] 6.07 µM
